Patent publication US9056923B2, “Mimetic peptides derived from collagen type IV and their use for treating angiogenesis- and lymphagiogenesis-dependent diseases” (THE JOHNS HOPKINS UNIVERSITY, priority 2010, dated 2015)
“Also recorded” adds a separate entry of the source. Ends that are not written are not given here.

System: MDA-MB-231 breast cancer cells
Assay: MDA-MB-231 wound healing type migration assay (Oris Pro)
Format: cell-based
Procedure: Breast cancer cells MDA-MB-231 are not suitable for the RT-CIM type experiments due to their thin elongated phenotype, thus the inhibition of migration was investigated using a wound healing type assay. This assay was performed using the Oris Pro Migration assay (Platypus Technologies, CMA 1.101). Briefly, 20,000-25,000 cells/well in full media were added to the 96 well plate containing stoppers to block migration of cells to the center region of the wells. Cells were allowed to adhere for 4 hours, after which the stoppers were removed. Cells were washed one time with PBS and fully supplemented media, with or without compound, was added to the wells. […], cells were stained with calcein AM (0.5 μg/mL) (Invitrogen, CA) and the cells that migrated to the center of the well were quantified by fluorescence intensity measured using a Victor V plate reader (Perkin Elmer) and also imaged using a Leica or Nikon microscope.

LRRFSTMPFMFININNVINF-NH2 [SP2024]
inhibition of migration of MDA-MB-231 cells: strong; also recorded: inhibition of cell migration
